Literature values in patent publication US20230310464A1, “USE OF C[…] THE TREATMENT OF SEIZURES ASSOCIATED WITH RARE […] SYNDROMES RELATED TO BRAIN INJURY” (GW Research Limited, priority 2020, published 2023).

How the values were obtained:
[1] = test system: seizures in patients with Lennox Gastaut syndrome; settings: 100% CBD, half also with HIE, Morales et al.; cited from earlier work
[2] = test system: HI injury in an animal model of NHIE; settings: CBD combined with therapeutic hypothermia, GB 2504263; cited from earlier work
[3] = test system: patients with Dravet and Lennox-Gastaut syndrome; settings: purified pharmaceutical formulation of CBD, three trials; cited from earlier work

For `C=C(C)[C@@H]1CCC(C)=C[C@H]1c1c(O)cc(CCCCC)cc1O` [CBD, cannabidiol], the “effect on seizures in LGS patients (in words)” value [1] is listed as “a reduction in seizures was obtained”, the “neuroprotection following HI injury (in words)” value [2] is listed as “synergistic in neuroprotection” and the “efficacy in randomized control trials (in words)” value [3] is listed as “showed efficacy”.
